The test system of data set [1] is Myzus persicae (green peach aphid). Nature of the data set: Example B5: Myzus persicae, sprayed sunflower leaf discs. Type of data set: in vivo. Conditions: foliar, 144 h, application rate 200 ppm, aphid population of mixed ages, 6 days after infestation. The method, then: Sunflower leaf discs were placed on agar in a 24-well microtiter plate and sprayed with aqueous test solutions prepared from 10,000 ppm DMSO stock solutions. After drying, the leaf discs were infested with an aphid population of mixed ages. The samples were assessed for mortality 6 days after infestation.

For data set [2], the system named is Spodoptera littoralis (Egyptian cotton leaf worm). In words: Example B1: Spodoptera littoralis, sprayed cotton leaf discs. Type of data set: in vivo. Conditions: foliar, 72 h, application rate 200 ppm, L1 larvae, 3 days after infestation, read-out: control in at least one of the three categories (mortality, anti-feedancy or growth inhibition). The method, then:
Cotton leaf discs were placed on agar in 24-well microtiter plates and sprayed with aqueous test solutions prepared from 10,000 ppm DMSO stock solutions. After drying the leaf discs were infested with five L1 larvae. The samples were assessed for mortality, anti-feedant effect, and growth inhibition in comparison to untreated samples 3 days after infestation. Control of Spodoptera littoralis by a test sample is when at least one of mortality, anti-feedant effect, and growth inhibition is higher than the untreated sample.

In data set [3] the test system is Diabrotica balteata (corn root worm). Nature of the data set: Example B4: Diabrotica balteata, sprayed maize sprouts. Conditions: 96 h, application rate 200 ppm, L2 larvae, 4 days after infestation, read-out: effect in at least one of the two categories (mortality or growth inhibition). Type of data set: in vivo. The method, then: Maize sprouts, placed on an agar layer in 24-well microtiter plates were treated with aqueous test solutions prepared from 10,000 ppm DMSO stock solutions by spraying. After drying, the plates were infested with L2 larvae (6 to 10 per well). The samples were assessed for mortality and growth inhibition in comparison to untreated samples 4 days after infestation.

For data set [4], the system named is Plutella xylostella (diamond back moth). Nature of the data set: Example B3: Plutella xylostella, treated artificial diet. Conditions: 120 h, application rate 200 ppm, L2 larvae, 5 days after infestation, read-out: effect in at least one of the two categories (mortality or growth inhibition). It counts as in vivo. The method, then: 24-well microtiter plates with artificial diet were treated with aqueous test solutions prepared from 10,000 ppm DMSO stock solutions by pipetting. After drying, the plates were infested with L2 larvae (10 to 15 per well). The samples were assessed for mortality and growth inhibition in comparison to untreated samples 5 days after infestation.

Data set [5] relates to Euschistus heros (neotropical brown stink bug). Nature of the data set: Example B6: Euschistus heros, sprayed soybean leaf. It counts as in vivo. Conditions: 120 h, application rate 200 ppm, N-2 nymphs, 5 days after infestation. An excerpt:
Soybean leaf on agar in 24-well microtiter plates were sprayed with aqueous test solutions prepared from 10,000 ppm DMSO stock solutions. After drying the leaf were infested with N-2 nymphs.

In data set [6] the test system is Spodoptera littoralis (Egyptian cotton leaf worm). In words: Example B2: Spodoptera littoralis, systemic test via lettuce roots in agar. Conditions: 144 h, application rate 12.5 ppm, Spodoptera eggs, 6 days after infestation, read-out: control in at least one of the three categories (mortality, anti-feedancy or growth inhibition). Type of data set: in vivo. The text has this:
Test compounds were applied by pipette from 10,000 ppm DMSO stock solutions into 24-well plates and mixed with agar. Lettuce seeds were placed on the agar and the multi well plate was closed by another plate which contains also agar. After 7 days the roots have absorbed the compound and the lettuce has grown into the lid plate. The lettuce leafs were now cut off into the lid plate. Spodoptera eggs were pipetted through a plastic stencil on a humid gel blotting paper and the plate closed with it. The samples were assessed for mortality, anti-feedant effect and growth inhibition in comparison to untreated samples 6 days after infestation.
The following compounds gave an effect of at least 80% control in at least one of the three categories (mortality, anti-feedancy or growth inhibition) at an application rate of 12.5 ppm: P2, P3, P8, P9, P11 and P17, P19, P20, P22, P23, P25, P26, P28, P30, P31, P32, P33, P40, P42, P43, P44, P45, P46, P47, P48, P49, P50, P51, P52, P53, P54, P60 and P61.

Data set [7] relates to Tetranychus urticae (two-spotted spider mite). In words: Example B8: Tetranychus urticae, sprayed bean leaf discs. Type of data set: in vivo. Conditions: foliar, 192 h, application rate 200 ppm, mixed population (mobile stages), 8 days after infestation. The text has this:
Bean leaf discs on agar in 24-well microtiter plates were sprayed with aqueous test solutions prepared from 10,000 ppm DMSO stock solutions. After drying the leaf discs were infested with a mite population of mixed ages.

With `CCSc1cc(-c2ccc(Cl)cc2)cnc1C(=O)/N=c1\sc(C(F)(F)F)nn1C`, the melting point (usually the temperature of the solid-liquid transition) fell in the range of 147 to 148 °C.

In turn, `CCSc1cc(-n2ccc(C(F)(F)F)n2)cnc1C(=O)/N=c1\sc(C(F)(F)C(F)(F)F)nn1C` registered a melting point of 219 to 221 °C.

With `CCSc1cc(-c2ccc(C(F)(F)F)cc2)cnc1C(=O)/N=c1\sc(C(F)(F)C(F)(F)F)nn1C`, the melting point lay in the range of 173 to 175 °C.

Regarding `CCS(=O)(=O)c1cc(-c2ccc(C(F)(F)F)cc2)ccc1C(=O)/N=c1\sc(C(F)(F)F)nn1C`, the melting point was 140 to 142 °C.

In turn, `CCS(=O)(=O)c1cc(-c2cccc(Cl)c2)cnc1C(=O)/N=c1\sc(C(F)(F)F)nn1C` came in with a melting point of 184 to 186 °C.

On to `CCS(=O)(=O)c1cc(-c2ccc(Cl)cc2)cnc1C(=O)/N=c1\sc(C(F)(F)F)nn1C` [Compound P2, (N)-5-(4-chlorophenyl)-3-ethylsulfonyl-N-[3-methyl-5-(trifluoromethyl)-1,3,4-thiadiazol-2-ylidene]pyridine-2-carboxamide], for which the mortality at 200 ppm in data set [1] and in data set [5] was at least 80% throughout. In addition, in data set [2], the percent control (mortality, anti-feedant effect or growth inhibition) at 200 ppm was at least 80%. In addition, the percent effect (mortality or growth inhibition) at 200 ppm in data set [3] and in data set [4] was at least 80% each time. For the same compound, the percent control (mortality, anti-feedant effect or growth inhibition) at 12.5 ppm in data set [6] is at least 80%.

For the compound `CCS(=O)(=O)c1cc(-c2ccc(Cl)cc2)cnc1C(=O)/N=c1\sc(C(F)(F)C(F)(F)F)nn1C` [Compound P11], the mortality at 200 ppm in data set [1] and in data set [5] was at least 80% each time. Besides, in data set [2], the percent control (mortality, anti-feedant effect or growth inhibition) at 200 ppm is at least 80%. Further, the percent effect (mortality or growth inhibition) at 200 ppm in data set [3] and in data set [4] was at least 80% each time. Further, the percent control (mortality, anti-feedant effect or growth inhibition) at 12.5 ppm in data set [6] is at least 80%.

On to `CCS(=O)(=O)c1cc(C2(C#N)CC2)cnc1C(=O)/N=c1\sc(C(F)(F)F)nn1C` [Compound P19], for which the mortality at 200 ppm in data set [1] and in data set [5] was at least 80% in each case. The percent control (mortality, anti-feedant effect or growth inhibition) at 200 ppm in data set [2] was at least 80%. Also, the percent effect (mortality or growth inhibition) at 200 ppm in data set [3] and in data set [4] was at least 80% throughout. Further, the percent control (mortality, anti-feedant effect or growth inhibition) at 12.5 ppm in data set [6] is at least 80%.

In the case of `CCS(=O)(=O)c1cc(-c2cccc3c2OC(F)(F)O3)cnc1C(=O)/N=c1\sc(C(F)(F)F)nn1C` [Compound P29], the percent control (mortality, anti-feedant effect or growth inhibition) at 200 ppm in data set [2] is at least 80%. The percent effect (mortality or growth inhibition) at 200 ppm in data set [3] and in data set [4] was at least 80% in each case. The mortality at 200 ppm in data set [7] and in data set [5] was at least 80% throughout.

On to `CCS(=O)(=O)c1cc(-c2cccc(OC(F)(F)F)c2)cnc1C(=O)/N=c1\sc(C(F)(F)F)nn1C` [Compound P31], for which the percent control (mortality, anti-feedant effect or growth inhibition) at 200 ppm in data set [2] was at least 80%. Besides, the percent effect (mortality or growth inhibition) at 200 ppm in data set [3] and in data set [4] was at least 80% each time. Further, the mortality (usually the share of the test organisms that died) at 200 ppm in data set [7] is at least 80%. In addition, in data set [6], the percent control (mortality, anti-feedant effect or growth inhibition) at 12.5 ppm is at least 80%.

On to `CCS(=O)(=O)c1cc(-c2nccc(C(F)(F)F)n2)cnc1C(=O)/N=c1\sc(C(F)(F)F)nn1C` [Compound P40], for which the mortality at 200 ppm in data set [1] and in data set [5] was at least 80% throughout. In addition, the percent control (mortality, anti-feedant effect or growth inhibition) at 200 ppm in data set [2] was at least 80%. The percent effect (mortality or growth inhibition) at 200 ppm in data set [3] and in data set [4] was at least 80% in each case. In data set [6], the percent control (mortality, anti-feedant effect or growth inhibition) at 12.5 ppm is at least 80%.

As to `CCS(=O)(=O)c1cc(-c2ncc(Cl)cc2Cl)cnc1C(=O)/N=c1\sc(C(F)(F)F)nn1C` [Compound P46], the mortality at 200 ppm in data set [1] and in data set [5] was at least 80% throughout. Besides, the percent control (mortality, anti-feedant effect or growth inhibition) at 200 ppm in data set [2] is at least 80%. The percent effect (mortality or growth inhibition) at 200 ppm in data set [3] and in data set [4] was at least 80% throughout. Besides, the percent control (mortality, anti-feedant effect or growth inhibition) at 12.5 ppm in data set [6] was at least 80%.

For the compound `CCS(=O)(=O)c1cc(-c2ccccn2)cnc1C(=O)/N=c1\sc(C(F)(F)F)nn1C` [Compound P51], the mortality at 200 ppm in data set [1] and in data set [5] was at least 80% in each case. Further, the percent control (mortality, anti-feedant effect or growth inhibition) at 200 ppm in data set [2] was at least 80%. The percent effect (mortality or growth inhibition) at 200 ppm in data set [3] and in data set [4] was at least 80% throughout. In addition, the percent control (mortality, anti-feedant effect or growth inhibition) at 12.5 ppm in data set [6] is at least 80%.

Turning to `CCS(=O)(=O)c1cc(-c2cncc(C(F)(F)F)c2)cnc1C(=O)/N=c1\sc(C(F)(F)F)nn1C` [Compound P53], in data set [1], the mortality at 200 ppm was at least 80%. The percent control (mortality, anti-feedant effect or growth inhibition) at 200 ppm in data set [2] is at least 80%. The percent effect (mortality or growth inhibition) at 200 ppm in data set [3] and in data set [4] was at least 80% in each case. Also, the percent control (mortality, anti-feedant effect or growth inhibition) at 12.5 ppm in data set [6] was at least 80%.

In the case of `CCS(=O)(=O)c1cc(-c2ccnc(F)c2)cnc1C(=O)/N=c1\sc(C(F)(F)F)nn1C` [Compound P54], the mortality at 200 ppm in data set [1] and in data set [5] was at least 80% throughout. The percent control (mortality, anti-feedant effect or growth inhibition) at 200 ppm in data set [2] was at least 80%. For the same compound, the percent effect (mortality or growth inhibition) at 200 ppm in data set [3] and in data set [4] was at least 80% throughout. Besides, in data set [6], the percent control (mortality, anti-feedant effect or growth inhibition) at 12.5 ppm was at least 80%.

Take `CCS(=O)(=O)c1cc(-c2nc(C(F)(F)F)cs2)cnc1C(=O)/N=c1\sc(C(F)(F)F)nn1C` [Compound P60]: the mortality at 200 ppm in data set [1] was at least 80%. In data set [2], the percent control (mortality, anti-feedant effect or growth inhibition) at 200 ppm was at least 80%. Moreover, the percent effect (mortality or growth inhibition) at 200 ppm in data set [3] and in data set [4] was at least 80% throughout. Further, in data set [6], the percent control (mortality, anti-feedant effect or growth inhibition) at 12.5 ppm is at least 80%.

`CCS(=O)(=O)c1cc(-c2cccc(Cl)n2)cnc1C(=O)/N=c1\sc(C(F)(F)F)nn1C` [Compound P64, (N)-5-(6-chloro-2-pyridyl)-3-ethylsulfonyl-N-[3-methyl-5-(trifluoromethyl)-1,3,4-thiadiazol-2-ylidene]pyridine-2-carboxamide]: the mortality at 200 ppm in data set [1] and in data set [5] was at least 80% in each case. In data set [2], the percent control (mortality, anti-feedant effect or growth inhibition) at 200 ppm was at least 80%. Further, the percent effect (mortality or growth inhibition) at 200 ppm in data set [3] and in data set [4] was at least 80% each time.

In the case of `CCS(=O)(=O)c1cc(-c2ncc(F)cc2F)cnc1C(=O)/N=c1\sc(C(F)(F)F)nn1C` [Compound P66], the mortality at 200 ppm in data set [1] and in data set [5] was at least 80% throughout. In addition, the percent control (mortality, anti-feedant effect or growth inhibition) at 200 ppm in data set [2] was at least 80%. For the same compound, the percent effect (mortality or growth inhibition) at 200 ppm in data set [3] and in data set [4] was at least 80% in each case.

On to `CCS(=O)(=O)c1cc(-c2cc(C(F)(F)F)ccn2)cnc1C(=O)/N=c1\sc(C(F)(F)F)nn1C` [Compound P70], for which the percent control (mortality, anti-feedant effect or growth inhibition) at 200 ppm in data set [2] was at least 80%. Further, the percent effect (mortality or growth inhibition) at 200 ppm in data set [3] and in data set [4] was at least 80% throughout. This compound also showed a mortality at 200 ppm in data set [7] of at least 80%.
